Experimental data as given in ChEMBL document CHEMBL3244234, “Alteration of relative affinities toward myocardial and vascular beta adrenoceptors induced by side-chain substitution of aryloxypropanolamines” (J Med Chem, 1978).

Columns and labels:
Felis catus [1] = assay: In vivo inhibition of beta-1 adrenoceptor in vagotomized cat assessed as inhibition of isoproterenol-induced tachycardia; type: functional, organism-based; conditions: read-out: pA2 (converted)
Cavia porcellus = species: Cavia porcellus; assay: Selectivity for guinea pig right atria beta-1 adrenoceptor over guinea pig trachea beta-2 adrenoceptor
Felis catus [2] = assay: Potency ratio for in vivo inhibition of beta-1 adrenoceptor in vagotomized cat assessed as inhibition of isoproterenol-induced tachycardia to in vivo inhibition of beta-2 adrenoceptor in chloralose-anesthetized vagotomized cat assessed as inhibition of isoproterenol-induced fall in diastolic pressure; type: functional
[3] = 1-Octanol-phosphate buffer apparent partition coefficient, log P of the compound at pH 7.4; type: physicochemical
Felis catus [4] = assay: In vivo inhibition of beta-2 adrenoceptor in chloralose-anesthetized vagotomized cat assessed as inhibition of isoproterenol-induced fall in diastolic pressure; type: functional, organism-based; conditions: read-out: pA2 (converted)
Felis catus [5] = assay: Potency ratio for in vivo inhibition of beta-2 adrenoceptor in chloralose-anesthetized vagotomized cat assessed as inhibition of isoproterenol-induced fall in diastolic pressure to in vivo inhibition of beta-1 adrenoceptor in vagotomized cat assessed as inhibition of isoproterenol-induced tachycardia; type: functional

Structure (SMILES)	Kb (Felis catus [1]) [nM]	Selectivity ratio (Cavia porcellus)	Ratio (Felis catus [2])	logD [3]	Kb (Felis catus [4]) [nM]	Ratio (Felis catus [5])
CC(C)NCC(O)COc1ccccc1 (racemic)	44.7	25	5	-0.137	204	–
COc1ccc(CCN[C@H](C)[C@@H](O)COc2ccccc2)cc1OC.Cl (racemic)	219	–	>40	1.66	> 10000	–
Cc1ccc(OCC(O)CNC(C)C)cc1 (racemic)	234	–	1	0.423	234	–
COc1ccc(CCNCC(O)COc2ccccc2)cc1OC.Cl (racemic)	63.1	–	10	1.7	692	–
CC(C)N[C@H](c1ccccc1)[C@@H](O)COc1ccccc1 (racemic)	> 10000	–	–	2.1	> 10000	–
Cc1ccc([C@@H](O)[C@H](C)NC(C)C)cc1 (racemic)	> 10000	–	<0.3	0.149	3390	–
CC(=O)Nc1ccc(OCC(O)CNC(C)C)cc1 (racemic) [PRACTOLOL]	229	–	22	-1.05	5010	–
CC(C)N[C@@H](C)[C@@H](O)COc1ccccc1.O=C(O)C(=O)O (racemic)	2190	–	0.3	-0.244	631	3
CC(C)N[C@H](C)[C@@H](O)COc1ccccc1.Cl (racemic)	501	–	0.3	-0.244	151	3
